{"source": "patent US20120232062A1", "about": "“AZAINDAZOLES TO TREAT FLAVIVIRIDAE VIRUS INFECTION” (EIGER BIOPHARMACEUTICALS, INC., priority 2009, published 2012)", "key": {"CYP 2D6": {"target": "T1, CYP 2D6 (Homo sapiens, UniProt P10635)", "T1 construct": "For human liver microsome solution, a stock solution (20 mg/mL (4×final)) is used; from tissue; host or cells: human liver microsomes", "T1 sequence (P10635 whole entry)": "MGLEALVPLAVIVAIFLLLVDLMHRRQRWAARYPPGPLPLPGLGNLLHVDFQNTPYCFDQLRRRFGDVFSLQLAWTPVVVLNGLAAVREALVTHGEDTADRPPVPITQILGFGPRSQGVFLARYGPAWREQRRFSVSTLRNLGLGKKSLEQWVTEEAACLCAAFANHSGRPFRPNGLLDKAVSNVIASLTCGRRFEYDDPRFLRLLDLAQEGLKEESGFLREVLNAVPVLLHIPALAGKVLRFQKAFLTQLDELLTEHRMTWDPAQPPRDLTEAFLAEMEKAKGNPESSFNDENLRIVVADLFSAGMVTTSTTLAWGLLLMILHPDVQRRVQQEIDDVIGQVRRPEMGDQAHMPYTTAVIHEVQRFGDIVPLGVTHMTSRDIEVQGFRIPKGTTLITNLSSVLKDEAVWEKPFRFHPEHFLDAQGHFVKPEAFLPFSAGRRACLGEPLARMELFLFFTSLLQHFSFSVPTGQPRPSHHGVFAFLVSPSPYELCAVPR", "test": "CYP inhibition testing, CYP 2D6", "format": "in vitro ADME", "conditions": "human liver microsomes; >75 = low level of inhibition", "experimental": "(§1) Select compounds are tested for CYP inhibition against five different CYP enzymes: CYP 1A2, CYP 2C9, CYP 2C19, CYP 2D6, CYP 3A4. Individual CYP enzymes are incubated with corresponding substrates with no inhibitor (negative control). Individual CYP enzymes are then incubated with corresponding substrates in the presence of test compound. […] Values of 70>v, w, x, y, z>30 indicate moderate level of inhibition of the corresponding enzyme.\n(§2) The following reagents are used: Sodium Phosphate, monobasic; Sodium Phosphate, dibasic; β-Nicotinamide Adenine Dinucleotide Phosphate-Reduced (NADPH), Roche; Milli-Q Water; 0.1 M Potassium phosphate buffer (K-buffer), pH 7.4. The following stock solutions are used. Stock A (136.5 g of monobasic potassium phosphate in 1 L of Milli-Q water (1.0 M)). Stock B (174.2 g of dibasic potassium phosphate in 1 L of Milli-Q water (1.0 M)). 40.5 mL of Stock B is mixed with 9.5 mL of Stock A, and the total volume brought near 500 mL with Milli-Q water to give 0.1 M potassium phosphate buffer. The buffer is titrated with KOH or H3PO4 to pH 7.4. To prepare a cofactor buffer (4×, 8 mM NADPH), 66.7 mg of NADPH tetrasodium salt is dissolved in 10 mL of K-buffer. For human liver microsome solution, a stock solution (20 mg/mL (4×final)) is used.\n(§3) The following Positive control stock solutions are prepared: 0.3 mM α-Naphthoflavone (MW: 272.3, 0.0817 mg of α-Naphthoflavone in 1 mL DMSO), 10 mM Sulfaphenazole (MW: 314.4, 3.14 mg of sulfaphenazole in 1 mL DMSO) 100 mM Omeprazole (MW: 345.4, 34.54 mg of omeprazole in 1 mL DMSO), 2.5 mM Quinidine (MW: 324, 0.81 mg of quinidine in 1 mL DMSO), and 2.5 mM Ketoconazole (MW: 531.4, 1.33 mg of ketoconazole in 1 mL DMSO).\n(§4) The following substrate stock solutions are prepared: 6 mM Phenacetin (MW: 179.22, 1.075 mg of phenacetin in 1 mL can), 10 mM Diclofenac (MW: 318.83, 3.18 mg of Diclofenac in 1 ml H2O), 35 mM S-Mephenyloin (MW: 218.25, 7.64 mg of s-mephenyloin in 1 mL ACN 10 mM Bufuralol (MW: 297.82, 2.98 mg of Bufuralol in 1 ml H2O), 1 mM Midazolam (MW: 325.77, 0.326 mg of midazolam in 1 mL can), and 10 mM Testosterone (MW: 288.42, 2.88 mg of Testosterone in 1 ml ACN.\n(§5) Test compounds and reference compounds (positive control) are prepared in 0.2 mg/ml liver microsome solution. A 0.2 mg/ml liver microsome solution (2×final) is prepared from stock solution by adding 10 μL microsome stock solutions (20 mg/ml) in 990 μL K-buffer. 8 μL of 10 mM test compound stock solution (in DMSO or other solvent at various concentrations) is diluted with 12 μL ACN to make 4 mM solutions. 1:3 serial dilutions are performed using DMSO/ACN (40:60) from 4 mM solution further down seven concentration points (400×final): 4 mM, 1.33 mM, 0.44 mM, 0.148 mM, […], 0.0165 mM, 0.00549 mM, 0 mM. […]"}, "CYP 1A2": {"target": "T2, CYP 1A2 (Homo sapiens, UniProt P05177)", "T2 construct": "For human liver microsome solution, a stock solution (20 mg/mL (4×final)) is used; from tissue; host or cells: human liver microsomes", "T2 sequence (P05177 1-516)": "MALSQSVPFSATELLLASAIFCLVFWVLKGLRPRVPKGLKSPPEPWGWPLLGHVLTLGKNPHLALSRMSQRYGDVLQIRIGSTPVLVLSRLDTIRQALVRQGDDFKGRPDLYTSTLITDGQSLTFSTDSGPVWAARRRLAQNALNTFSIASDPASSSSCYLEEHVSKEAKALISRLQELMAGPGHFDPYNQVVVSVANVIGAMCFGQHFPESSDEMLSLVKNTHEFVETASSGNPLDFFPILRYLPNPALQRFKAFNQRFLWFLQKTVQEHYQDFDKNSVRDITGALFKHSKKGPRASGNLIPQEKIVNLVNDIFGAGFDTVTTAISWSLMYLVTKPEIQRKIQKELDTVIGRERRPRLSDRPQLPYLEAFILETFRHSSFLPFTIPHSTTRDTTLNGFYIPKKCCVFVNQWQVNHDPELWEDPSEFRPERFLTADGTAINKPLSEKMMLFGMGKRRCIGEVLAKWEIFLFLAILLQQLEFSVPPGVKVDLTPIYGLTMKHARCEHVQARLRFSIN", "test": "CYP inhibition testing, CYP 1A2", "format": "in vitro ADME", "conditions": "human liver microsomes; >75 = low level of inhibition", "experimental": "as §1, §2, §3, §4, §5"}}, "data": [{"smiles": "Cn1nc(C(=O)NC2CCNCC2)c2ccc(N3CCCCCC3)nc21.O=C(O)C(F)(F)F.O=C(O)C(F)(F)F", "note": "[compound 697]", "values": [{"measurement": "CYP (% negative controls) 2D6", "setting": "CYP 2D6", "value": 80, "unit": "% negative controls"}, {"measurement": "CYP (% negative controls) 1A2", "setting": "CYP 1A2", "value": 97, "unit": "% negative controls"}]}, {"smiles": "CCC(CC)Oc1ccc2c(C(=O)NC3CCNCC3)n[nH]c2n1", "note": "[compound 726]", "values": [{"measurement": "CYP (% negative controls) 2D6", "setting": "CYP 2D6", "value": 72, "unit": "% negative controls"}, {"measurement": "CYP (% negative controls) 1A2", "setting": "CYP 1A2", "value": 102, "unit": "% negative controls"}]}, {"smiles": "Cn1nc(C(=O)NC2CCN(CCN3CCCCC3)CC2)c2ccc(N3CCCCCC3)nc21", "note": "[compound 1047]", "values": [{"measurement": "CYP (% negative controls) 2D6", "setting": "CYP 2D6", "value": 72, "unit": "% negative controls"}, {"measurement": "CYP (% negative controls) 1A2", "setting": "CYP 1A2", "value": 98, "unit": "% negative controls"}]}, {"smiles": "Cn1nc(CCCN2CCCC2)c2ccc(N3CCCCCCC3)nc21", "note": "[compound 1171]", "values": [{"measurement": "CYP (% negative controls) 2D6", "setting": "CYP 2D6", "value": 62, "unit": "% negative controls"}, {"measurement": "CYP (% negative controls) 1A2", "setting": "CYP 1A2", "value": 104, "unit": "% negative controls"}]}]}
